Results published in PubChem BioAssay AID1645862 (Buhrlage Lab, Dana-Farber Cancer Institute and Novartis …, 2021).
The source made the active and inactive calls. The rule behind the calls is not given here.

These molecules were tested against Ubiquitin carboxyl-terminal hydrolase 8 (Homo sapiens) (UniProt P40818) (assay: Ubiquitin-specific protease 8 inhibitors, concentration-effect, biochemical, validation of initial actives (AID 1645862;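 note: potency reflects inhibition of USP8 cleavage of a ubiquitin rhodamine substrate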)). Conditions: recombinant USP8 deubiquitinase activity assay.
Ubiquitin carboxyl-terminal hydrolase 8 (Homo sapiens), sequence (P40818 whole entry, looked up): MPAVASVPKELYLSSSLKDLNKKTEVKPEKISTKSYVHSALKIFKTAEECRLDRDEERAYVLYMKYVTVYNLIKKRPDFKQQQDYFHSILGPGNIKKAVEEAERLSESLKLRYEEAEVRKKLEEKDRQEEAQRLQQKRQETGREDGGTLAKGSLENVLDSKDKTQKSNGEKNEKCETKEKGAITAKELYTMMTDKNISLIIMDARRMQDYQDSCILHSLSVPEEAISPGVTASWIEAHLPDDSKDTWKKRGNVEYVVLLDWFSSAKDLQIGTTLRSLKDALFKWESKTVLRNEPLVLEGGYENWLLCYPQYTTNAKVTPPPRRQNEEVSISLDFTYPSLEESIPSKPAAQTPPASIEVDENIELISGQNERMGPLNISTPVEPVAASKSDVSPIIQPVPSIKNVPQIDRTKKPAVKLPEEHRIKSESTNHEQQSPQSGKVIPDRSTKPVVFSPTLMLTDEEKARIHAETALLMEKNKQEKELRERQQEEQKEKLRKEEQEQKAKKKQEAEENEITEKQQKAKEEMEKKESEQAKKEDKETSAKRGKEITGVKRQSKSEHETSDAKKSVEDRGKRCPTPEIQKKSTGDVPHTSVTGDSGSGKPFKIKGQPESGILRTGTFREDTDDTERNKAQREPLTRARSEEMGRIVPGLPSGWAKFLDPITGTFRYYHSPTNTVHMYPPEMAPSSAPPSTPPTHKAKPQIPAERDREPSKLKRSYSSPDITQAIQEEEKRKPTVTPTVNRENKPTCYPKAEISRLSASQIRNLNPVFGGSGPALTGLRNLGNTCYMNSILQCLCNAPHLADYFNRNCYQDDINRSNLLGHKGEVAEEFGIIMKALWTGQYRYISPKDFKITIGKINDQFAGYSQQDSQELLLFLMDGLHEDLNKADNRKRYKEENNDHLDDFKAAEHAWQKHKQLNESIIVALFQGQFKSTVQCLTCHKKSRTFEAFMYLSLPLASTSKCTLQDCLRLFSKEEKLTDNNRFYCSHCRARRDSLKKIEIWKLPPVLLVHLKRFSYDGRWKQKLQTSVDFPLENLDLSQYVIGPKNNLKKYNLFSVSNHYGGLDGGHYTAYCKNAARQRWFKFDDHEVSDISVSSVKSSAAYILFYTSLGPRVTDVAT

SMILES	IC50
COc1ccc(NC(=O)c2nnc(C(=O)NCc3ccccc3F)s2)cc1	> 40 µM (inactive)
Cn1cc(C(=O)NCC2COc3ccccc3O2)c(=O)c2cc(S(=O)(=O)N3CCCCC3)ccc21 (stereo not drawn)	> 40 µM (inactive)
COCCNC(=O)Cn1c(=O)n(Cc2ccc(C(=O)NCc3ccc(C)cc3)cc2)c(=O)c2ccccc21	> 40 µM (inactive)
Cc1ccc(Nc2nc(NCC(=O)Nc3cc(C)ccc3C)nc(Nc3ccc(C)cc3)n2)cc1	> 40 µM (inactive)
COc1ccc(NC(=O)Cn2cc(C(=O)c3ccc(F)cc3)c(=O)c3cc(C)ccc32)cc1	> 40 µM (inactive)
COc1cc(NC(=O)c2ccc3c(c2)OCO3)ccc1-c1cc2ccccc2oc1=O	> 40 µM (inactive)
CC1=C(C)C(c2c(-c3ccc(C)cc3)[nH]c3ccccc23)N(C(C)(C)C)C1=O (stereo not drawn)	> 40 µM (inactive)
CCOc1ccc(NC(=O)Cn2c(=O)n(CCC(=O)NCc3ccccc3OC)c(=O)c3ccccc32)cc1	> 40 µM (inactive)
O=S1(=O)CCN(Cc2c(F)cccc2F)c2c(F)nc(N3CCOCC3)c(F)c21	> 40 µM (inactive)
CCCCOc1ccc(-c2cc3n(c(=N)c2C#N)CCc2cc4c(cc2-3)OCCCO4)cc1OC	> 40 µM (inactive)
Cc1ccccc1-c1noc(-c2cn(Cc3ccc(NC(=O)Cc4ccccc4)cc3)cn2)n1	> 40 µM (inactive)
O=C(Cn1c(=O)n(CCC(=O)NC2CCCC2)c(=O)c2ccccc21)NCc1ccccc1Cl	> 40 µM (inactive)
COc1ccc(Cn2nc(C)cc2NC(=O)c2cccc(F)c2)cc1OC	> 40 µM (inactive)
CN(CC(=O)Nc1ccc(Cl)cc1)c1cnn(-c2nc3ccccc3[nH]2)c(=O)c1Cl	> 40 µM (inactive)
O=C(c1ccc2occc2c1)N1CCC(S(=O)(=O)c2ccc(-c3ccco3)cc2)CC1	> 40 µM (inactive)
Cc1ccc(NC(=O)Cc2nnc3c(-c4nc(C5CC5)no4)cccn23)c(C)c1	> 40 µM (inactive)
O=C(CCCn1c(=O)c2ccccc2n(CC(=O)c2ccc(Br)cc2)c1=O)NC1CCCC1	> 40 µM (inactive)
COc1c2nc3ccccc3oc-2cc(=O)c1OC	> 40 µM (inactive)
COc1ccc(OC)c(NC(=O)Cn2c(=O)n(CC3CCC(C(=O)NCCc4ccccc4)CC3)c(=O)c3ccccc32)c1 (stereo not drawn)	> 40 µM (inactive)
CNc1ncc(C(=O)N2CCOC(C(=O)N3CCCCCC3)C2)cn1 (stereo not drawn)	> 40 µM (inactive)
Cc1ccccc1NC(=O)CSC1=NC2(CCCCC2)Nc2ccccc21	> 40 µM (inactive)
Cc1ccc2c(c1)c(=O)c(C(=O)c1ccccc1)cn2CC(=O)Nc1ccccc1	27.5 µM

SMILES	IC50
CCCn1cc(-c2nc(-c3ccccn3)no2)c(=O)c2ccccc21	> 40 µM (inactive)
COc1ccc(-n2ccc(=O)c(-c3nc(-c4ccc(F)cc4)no3)n2)cc1	> 40 µM (inactive)
O=C(Cn1c(=O)n(Cc2ccc(C(=O)NCc3ccco3)cc2)c(=O)c2ccccc21)Nc1ccc2c(c1)OCCO2	> 40 µM (inactive)
CNc1ccc(-c2noc([C@@H]3CCCN3Cc3cccc(C#N)c3)n2)cn1	> 40 µM (inactive)
Cc1cc(N2CCN(c3ncccn3)CC2)nc2ccc(NC(=O)Cn3nc([N+](=O)[O-])c(Br)c3C)cc12	> 40 µM (inactive)
Cc1ccc(Nc2nc(O)c(CC(=O)Nc3cccc(Cl)c3C)s2)cc1C	> 40 µM (inactive)
CC(C)=CCC/C(C)=C/COc1ccc(/C=C2\C(=O)N(O)[C@@H](C)C(=O)N2O)cc1	> 40 µM (inactive)
O=C(COC(=O)c1cc2c(s1)CCC2)c1ccc2[nH]c(=O)[nH]c2c1	> 40 µM (inactive)
Cc1nc2nc(C(c3ccccc3)c3ccccc3)[nH]n2c(=O)c1Cc1ccccc1	> 40 µM (inactive)
Cc1ccccc1-c1nc(-c2cn(CC(=O)Nc3ccccc3)cn2)no1	> 40 µM (inactive)
CN1CCc2c(C#N)c(N3CCOCC3)nc(NCC3CCCO3)c2C1 (stereo not drawn)	> 40 µM (inactive)
Cn1c(CCNC(=O)c2[nH]nc3c2CCc2ccccc2-3)nc2ccccc21	> 40 µM (inactive)
O=C(Nc1ccccc1-c1nc2ccccc2[nH]1)c1sc2ccccc2c1Cl	10.5 µM
COc1ccc(-n2ccn3c(CCC(=O)Nc4cccc(C)c4)nnc3c2=O)cc1	> 40 µM (inactive)
Cc1sc(NC(=O)c2ccc(S(=O)(=O)N(C)Cc3ccccc3)cc2)c(C(N)=O)c1C	> 40 µM (inactive)
Cc1ccc(Nc2nc3c(S(=O)(=O)c4ccccc4)nnn3c3ccccc23)c(C)c1	> 40 µM (inactive)
COc1ccc(NC(=O)Cn2c(=O)n(CCC(=O)NCc3ccccc3)c(=O)c3sccc32)cc1Cl	> 40 µM (inactive)
CC1Oc2cc3c(-c4c(O)cc(O)c5c(O)c6c(cc45)OC(C)C(C)C6=O)c(O)cc(O)c3c(O)c2C(=O)C1C (stereo not drawn)	> 40 µM (inactive)
Cc1ccc(NC(=O)Nc2ccccc2OCc2cc(=O)n3cc(C)ccc3n2)cc1	> 40 µM (inactive)
COC(=O)Nc1cccn(Cc2c(Cl)cccc2Cl)c1=O	> 40 µM (inactive)
O=C(COc1ccc(Cl)cc1Cl)Nc1ccc2[nH]c(=O)[nH]c2c1	> 40 µM (inactive)
